Each molecule was assayed against MASP-2 CCP2-SP (Homo sapiens (Human), UniProt O00187) (assay: MASP-2 co-crystallization, X-ray crystallography and structure analysis (H-bonds, van der Waals contacts)). Conditions: Table A4-1; element C2.
Parameters: van der Waals contact distance, MASP-2 HIS 483 atom CD2 / van der Waals contact distance, MASP-2 HIS 483 atom NE2 / van der Waals contact distance, SER 654 C to compound atom / van der Waals contact distance, SER 654 O to compound atom / van der Waals contact distance, TRP 655 C to compound atom / van der Waals contact distance, MASP-2 GLY 528 atom CA / van der Waals contact distance TRP 655 atom CZ3 / van der Waals contact distance TRP 655 atom N / van der Waals contact distance TRP 655 atom CE3 / van der Waals contact distance GLY 656 atom C / van der Waals contact distance GLY 656 atom CA / van der Waals contact distance GLY 656 atom O / van der Waals contact distance, MASP-2 TYR 607 atom CD1 / van der Waals contact distance, MASP-2 PRO 606 atom O / d(C3,CA1) / d(CA1,N1)2 / d(H4,O1) / d(H4,O2) / d(O1,O2) / d(CA1,O2) / d(CA6,O1) / d(CA6,O2) / d(CA1,C5) / d(O2,H3) / d(N2,C2) / d(CA5,N2) / d(N2,C4) / d(N2,C6) / d(N2,CA3) / d(N2,O3) / d(O4,H2): unit not given beside the values
Method in brief: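 Inhibitor complexes were obtained by soaking crystals of E. coli-derived human MASP-2 CCP2-SP. Synchrotron diffraction at 1.0 wavelength, molecular replacement and partial refinement gave the models; one pose per ligand was chosen for contact analysis.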
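Throughout, for Ligand-pharmacophore element distance, pharmacophore element C2: distance from averaged pharmacophore element to bound ligand; missing value means element absent.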
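Throughout, for Ligand-pharmacophore element distance, pharmacophore element C3: distance from averaged pharmacophore element to bound ligand; missing value means element absent.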
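Throughout, for Ligand-pharmacophore element distance, pharmacophore element C4: distance from averaged pharmacophore element to bound ligand; missing value means element absent.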
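Throughout, for Ligand-pharmacophore element distance, pharmacophore element C5: distance from averaged pharmacophore element to bound ligand; missing value means element absent.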

Chain of MASP-2 CCP2-SP (O00187 445-686): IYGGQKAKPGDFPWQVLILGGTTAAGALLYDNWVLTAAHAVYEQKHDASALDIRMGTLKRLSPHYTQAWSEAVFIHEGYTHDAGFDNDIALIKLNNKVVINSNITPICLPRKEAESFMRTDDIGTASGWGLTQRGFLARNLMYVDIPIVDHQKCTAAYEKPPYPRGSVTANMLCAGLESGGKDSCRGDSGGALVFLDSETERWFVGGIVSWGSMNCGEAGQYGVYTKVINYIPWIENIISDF
Chain of MASP-2 CCP2-SP (O00187 364-432 partner): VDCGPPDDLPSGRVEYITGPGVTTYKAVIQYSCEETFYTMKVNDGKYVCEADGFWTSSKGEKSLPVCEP

SMILES	Ligand-pharmacophore element distance, pharmacophore element C2
CC(=O)Nc1ccc(CCNC(CCc2ccccc2)C(=O)NC(C)C(=O)NCc2ccc(C(=N)N)cc2)cc1.Cl.Cl (centres unmarked) [1345_2]	0
Cc1nc(N)ccc1CNC(=O)[C@H](C)NC(=O)[C@H]1C[C@H](Cc2ccccc2Br)CN1.O=C(O)C(F)(F)F.O=C(O)C(F)(F)F [1372_A]	0

Same assay, conditions: Table A4-1; element C3

SMILES	Ligand-pharmacophore element distance, pharmacophore element C3
CC(=O)Nc1ccc(CCNC(CCc2ccccc2)C(=O)NC(C)C(=O)NCc2ccc(C(=N)N)cc2)cc1.Cl.Cl (centres unmarked) [1345_2]	0
Cc1nc(N)ccc1CNC(=O)[C@H](C)NC(=O)[C@H]1C[C@H](Cc2ccccc2Br)CN1.O=C(O)C(F)(F)F.O=C(O)C(F)(F)F [1372_A]	0.09

Same assay, conditions: Table A4-1; element C4

SMILES	Ligand-pharmacophore element distance, pharmacophore element C4
CC(=O)Nc1ccc(CCNC(CCc2ccccc2)C(=O)NC(C)C(=O)NCc2ccc(C(=N)N)cc2)cc1.Cl.Cl (centres unmarked) [1345_2]	0
Cc1nc(N)ccc1CNC(=O)[C@H](C)NC(=O)[C@H]1C[C@H](Cc2ccccc2Br)CN1.O=C(O)C(F)(F)F.O=C(O)C(F)(F)F [1372_A]	1.91

Same assay, conditions: Table A4-1; element C5

SMILES	Ligand-pharmacophore element distance, pharmacophore element C5
CC(=O)Nc1ccc(CCNC(CCc2ccccc2)C(=O)NC(C)C(=O)NCc2ccc(C(=N)N)cc2)cc1.Cl.Cl (centres unmarked) [1345_2]	0
Cc1nc(N)ccc1CNC(=O)[C@H](C)NC(=O)[C@H]1C[C@H](Cc2ccccc2Br)CN1.O=C(O)C(F)(F)F.O=C(O)C(F)(F)F [1372_A]	0

Same assay, conditions: Table A4-1; element C6

SMILES	Ligand-pharmacophore element distance, pharmacophore element C6
CC(=O)Nc1ccc(CCNC(CCc2ccccc2)C(=O)NC(C)C(=O)NCc2ccc(C(=N)N)cc2)cc1.Cl.Cl (centres unmarked) [1345_2]	0
Cc1nc(N)ccc1CNC(=O)[C@H](C)NC(=O)[C@H]1C[C@H](Cc2ccccc2Br)CN1.O=C(O)C(F)(F)F.O=C(O)C(F)(F)F [1372_A]	0

Same assay, conditions: Table A4-1; element C7

SMILES	Ligand-pharmacophore element distance, pharmacophore element C7
CC(=O)Nc1ccc(CCNC(CCc2ccccc2)C(=O)NC(C)C(=O)NCc2ccc(C(=N)N)cc2)cc1.Cl.Cl (centres unmarked) [1345_2]	0
Cc1nc(N)ccc1CNC(=O)[C@H](C)NC(=O)[C@H]1C[C@H](Cc2ccccc2Br)CN1.O=C(O)C(F)(F)F.O=C(O)C(F)(F)F [1372_A]	0

Same assay, conditions: Table A4-1; element CA1

SMILES	Ligand-pharmacophore element distance, pharmacophore element CA1
CC(=O)Nc1ccc(CCNC(CCc2ccccc2)C(=O)NC(C)C(=O)NCc2ccc(C(=N)N)cc2)cc1.Cl.Cl (centres unmarked) [1345_2]	0.45
Cc1nc(N)ccc1CNC(=O)[C@H](C)NC(=O)[C@H]1C[C@H](Cc2ccccc2Br)CN1.O=C(O)C(F)(F)F.O=C(O)C(F)(F)F [1372_A]	0.55

Same assay, conditions: Table A4-1; element CA2

SMILES	Ligand-pharmacophore element distance, pharmacophore element CA2
CC(=O)Nc1ccc(CCNC(CCc2ccccc2)C(=O)NC(C)C(=O)NCc2ccc(C(=N)N)cc2)cc1.Cl.Cl (centres unmarked) [1345_2]	0.89
Cc1nc(N)ccc1CNC(=O)[C@H](C)NC(=O)[C@H]1C[C@H](Cc2ccccc2Br)CN1.O=C(O)C(F)(F)F.O=C(O)C(F)(F)F [1372_A]	0.47

Same assay, conditions: Table A4-1; element CA3

SMILES	Ligand-pharmacophore element distance, pharmacophore element CA3
CC(=O)Nc1ccc(CCNC(CCc2ccccc2)C(=O)NC(C)C(=O)NCc2ccc(C(=N)N)cc2)cc1.Cl.Cl (centres unmarked) [1345_2]	1.13
Cc1nc(N)ccc1CNC(=O)[C@H](C)NC(=O)[C@H]1C[C@H](Cc2ccccc2Br)CN1.O=C(O)C(F)(F)F.O=C(O)C(F)(F)F [1372_A]	0

Same assay, conditions: Table A4-1; element CA4

SMILES	Ligand-pharmacophore element distance, pharmacophore element CA4
CC(=O)Nc1ccc(CCNC(CCc2ccccc2)C(=O)NC(C)C(=O)NCc2ccc(C(=N)N)cc2)cc1.Cl.Cl (centres unmarked) [1345_2]	0
Cc1nc(N)ccc1CNC(=O)[C@H](C)NC(=O)[C@H]1C[C@H](Cc2ccccc2Br)CN1.O=C(O)C(F)(F)F.O=C(O)C(F)(F)F [1372_A]	0

Same assay, conditions: Table A4-1; element CA5

SMILES	Ligand-pharmacophore element distance, pharmacophore element CA5
CC(=O)Nc1ccc(CCNC(CCc2ccccc2)C(=O)NC(C)C(=O)NCc2ccc(C(=N)N)cc2)cc1.Cl.Cl (centres unmarked) [1345_2]	0
Cc1nc(N)ccc1CNC(=O)[C@H](C)NC(=O)[C@H]1C[C@H](Cc2ccccc2Br)CN1.O=C(O)C(F)(F)F.O=C(O)C(F)(F)F [1372_A]	0

Same assay, conditions: Table A4-1; element CA6

SMILES	Ligand-pharmacophore element distance, pharmacophore element CA6
CC(=O)Nc1ccc(CCNC(CCc2ccccc2)C(=O)NC(C)C(=O)NCc2ccc(C(=N)N)cc2)cc1.Cl.Cl (centres unmarked) [1345_2]	0
Cc1nc(N)ccc1CNC(=O)[C@H](C)NC(=O)[C@H]1C[C@H](Cc2ccccc2Br)CN1.O=C(O)C(F)(F)F.O=C(O)C(F)(F)F [1372_A]	0

Same assay, conditions: Table A5-1 pharmacophore: distance between elements, S2/S1 region

SMILES	d(CA1,O1)	d(CA1,O2)	d(H4,O1)	d(H4,O2)	d(O1,O2)	d(C3,CA1)	d(CA1,N1)2
CC(=O)Nc1ccc(CCNC(CCc2ccccc2)C(=O)NC(C)C(=O)NCc2ccc(C(=N)N)cc2)cc1.Cl.Cl (centres unmarked) [1345_2]	4.58	4.16	4.97	4.32	3.32	–	–
Cc1nc(N)ccc1CNC(=O)[C@H](C)NC(=O)[C@H]1C[C@H](Cc2ccccc2Br)CN1.O=C(O)C(F)(F)F.O=C(O)C(F)(F)F [1372_A]	4.38	3.94	4.40	3.88	3.32	2.85	1.38

Same assay, conditions: Table A5-2 pharmacophore distance, S3/S4 region

SMILES	d(N2,CA2)	d(N2,CA3)	d(N2,O3)	d(O2,H3)	d(O2,N2)	d(N2,C4)	d(N2,C4)4
CC(=O)Nc1ccc(CCNC(CCc2ccccc2)C(=O)NC(C)C(=O)NCc2ccc(C(=N)N)cc2)cc1.Cl.Cl (centres unmarked) [1345_2]	5.98	5.15	8.73	5.51	2.87	–	–
Cc1nc(N)ccc1CNC(=O)[C@H](C)NC(=O)[C@H]1C[C@H](Cc2ccccc2Br)CN1.O=C(O)C(F)(F)F.O=C(O)C(F)(F)F [1372_A]	5.99	–	–	2.30	2.66	6.06	6.06

Same assay, conditions: Table A6-1 pharmacophore angle

SMILES	a(CA1, O1, O2)	a(O1, O2, H4)	a(C3, CA1, O1)
CC(=O)Nc1ccc(CCNC(CCc2ccccc2)C(=O)NC(C)C(=O)NCc2ccc(C(=N)N)cc2)cc1.Cl.Cl (centres unmarked) [1345_2]	105.43	138.87	–
Cc1nc(N)ccc1CNC(=O)[C@H](C)NC(=O)[C@H]1C[C@H](Cc2ccccc2Br)CN1.O=C(O)C(F)(F)F.O=C(O)C(F)(F)F [1372_A]	106.33	133.23	149.88

Same assay, conditions: Table A6-1 pharmacophore angle; Methyl-amino-pyridine compounds

SMILES	a(N1, CA1, O1) b)
Cc1nc(N)ccc1CNC(=O)[C@H](C)NC(=O)[C@H]1C[C@H](Cc2ccccc2Br)CN1.O=C(O)C(F)(F)F.O=C(O)C(F)(F)F [1372_A]	174.16

Same assay, conditions: Table A6-2 pharmacophore angle

SMILES	a(O1, O2, H3)	a(O1, O2, N2)	a(O2, N2, CA2)	a(O2, N2, CA3)	a(O2, N2, O3)	a(O2, N2, C4)	a(O2, N2, C4) 2
CC(=O)Nc1ccc(CCNC(CCc2ccccc2)C(=O)NC(C)C(=O)NCc2ccc(C(=N)N)cc2)cc1.Cl.Cl (centres unmarked) [1345_2]	152.27	142.63	153.90	151.66	162.76	–	–
Cc1nc(N)ccc1CNC(=O)[C@H](C)NC(=O)[C@H]1C[C@H](Cc2ccccc2Br)CN1.O=C(O)C(F)(F)F.O=C(O)C(F)(F)F [1372_A]	137.15	140.15	155.91	–	–	159.60	127.51

Same assay, conditions: Table A7-1; between pharmacophore elements of the bound compound

SMILES	Pharmacophore torsion angle a(H4, O1, O2, H3)	Pharmacophore torsion angle a(H4, O1, O2, N2)	Pharmacophore torsion angle a(O1, H4, O2, CA1)	Pharmacophore torsion angle a(C3, CA1, O1, H4)	Pharmacophore torsion angle a(N1, CA1, O1, H4)
CC(=O)Nc1ccc(CCNC(CCc2ccccc2)C(=O)NC(C)C(=O)NCc2ccc(C(=N)N)cc2)cc1.Cl.Cl (centres unmarked) [1345_2]	49.59	128.64	−68.67	–	–
Cc1nc(N)ccc1CNC(=O)[C@H](C)NC(=O)[C@H]1C[C@H](Cc2ccccc2Br)CN1.O=C(O)C(F)(F)F.O=C(O)C(F)(F)F [1372_A]	99.84	136.36	−83.68	25.78	5.73

Same assay, conditions: Table A7-2; between pharmacophore elements of the bound compound

SMILES	Pharmacophore torsion angle a(O1, O2, N2, CA2)	Pharmacophore torsion angle a(O1, O2, N2, CA3)	Pharmacophore torsion angle a(O1, O2, N2, O3)
CC(=O)Nc1ccc(CCNC(CCc2ccccc2)C(=O)NC(C)C(=O)NCc2ccc(C(=N)N)cc2)cc1.Cl.Cl (centres unmarked) [1345_2]	129.85	−34.52	−20.78
Cc1nc(N)ccc1CNC(=O)[C@H](C)NC(=O)[C@H]1C[C@H](Cc2ccccc2Br)CN1.O=C(O)C(F)(F)F.O=C(O)C(F)(F)F [1372_A]	129.48	–	–
